Usually IC50 stands for the midpoint of a concentration-inhibition curve. Low values mean inhibition by little substance, high ones a need for much substance. Usually inhibition stands for the drop in the measured response relative to a control, in per cent.

Consider 18 molecules from ChEMBL document CHEMBL5331103, “Discovery of novel 2-hydroxyl-4-benzyloxybenzyl aniline derivatives as potential multifunctional agents for the treatment of Parkinson's disease” (Eur J Med Chem, 2023).

Activity calls are given as the source filed them. No cut-off for these calls is given here.

Series [1] addresses T1, Amine oxidase [flavin-containing] B (Homo sapiens, UniProt P27338).
T1 sequence (P27338 whole entry): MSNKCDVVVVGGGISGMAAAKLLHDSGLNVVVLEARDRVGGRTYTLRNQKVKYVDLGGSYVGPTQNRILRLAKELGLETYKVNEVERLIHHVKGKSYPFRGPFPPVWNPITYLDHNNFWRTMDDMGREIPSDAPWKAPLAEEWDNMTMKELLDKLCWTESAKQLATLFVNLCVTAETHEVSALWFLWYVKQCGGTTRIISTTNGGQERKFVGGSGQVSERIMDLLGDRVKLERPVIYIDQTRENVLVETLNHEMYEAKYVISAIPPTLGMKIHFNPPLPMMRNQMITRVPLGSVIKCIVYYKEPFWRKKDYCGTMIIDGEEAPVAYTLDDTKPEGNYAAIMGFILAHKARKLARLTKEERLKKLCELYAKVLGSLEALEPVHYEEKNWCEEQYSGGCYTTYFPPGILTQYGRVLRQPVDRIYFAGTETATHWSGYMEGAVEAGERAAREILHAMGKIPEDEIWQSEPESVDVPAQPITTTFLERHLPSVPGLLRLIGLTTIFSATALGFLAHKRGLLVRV
Description: Inhibition of MAO-B (unknown origin) using kynuramine as substrate preincubated for 30 mins followed by substrate addition and measured after 30 mins by fluorescence based analysis

In series [2] the target is T2, Amine oxidase [flavin-containing] A (Homo sapiens, UniProt P21397).
T2 sequence (P21397 whole entry): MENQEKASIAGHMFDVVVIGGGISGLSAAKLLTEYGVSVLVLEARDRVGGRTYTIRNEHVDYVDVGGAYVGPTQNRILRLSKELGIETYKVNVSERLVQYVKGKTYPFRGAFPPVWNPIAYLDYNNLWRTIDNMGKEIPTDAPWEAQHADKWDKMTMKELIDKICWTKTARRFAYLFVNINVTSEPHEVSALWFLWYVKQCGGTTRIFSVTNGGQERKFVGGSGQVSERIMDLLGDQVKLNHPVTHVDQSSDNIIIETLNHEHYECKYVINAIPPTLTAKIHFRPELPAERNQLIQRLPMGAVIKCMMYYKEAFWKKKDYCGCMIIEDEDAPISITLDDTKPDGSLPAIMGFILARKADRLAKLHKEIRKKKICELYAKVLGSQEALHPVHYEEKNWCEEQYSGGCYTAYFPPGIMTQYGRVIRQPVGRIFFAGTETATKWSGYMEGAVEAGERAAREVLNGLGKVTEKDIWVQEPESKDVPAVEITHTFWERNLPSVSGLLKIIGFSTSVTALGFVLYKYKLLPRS
As to the kind of experiment: Inhibition of MAO-A (unknown origin) using kynuramine as substrate at 10 uM preincubated for 30 mins followed by substrate addition and measured after 30 mins by fluorescence based analysis relative to control. The settings on record: 0.5 h, time 60 min.

Series [3] has as its system BV-2. Put plainly: Anti-neuroinflammatory activity in mouse BV-2 cells assessed as inhibition of LPS-induced NO production at 10 uM preincubated for 30 mins followed by LPS stimulation and measured after 24 hrs by Griess reagent based assay relative to control. Format: functional. The settings on record: time 24.5 hrs. (Griess reagent forms a coloured azo dye with nitrite.)

Series [4] has as its system BV-2. Put plainly: Anti-neuroinflammatory activity in mouse BV-2 cells assessed as inhibition of LPS-induced TNF-alpha production at 10 uM preincubated for 30 mins followed by LPS stimulation and measured after 24 hrs by ELISA analysis relative to control. Format: functional. The settings on record: time 24.5 hrs.
Series [5] relates to BV-2. Put plainly: Cytotoxicity against mouse BV-2 cells assessed as reduction in cell viability upto 10 uM incubated for 30 mins by MTT assay. Format: toxicity, cell-based. The settings on record: bv-2, 0.5 h. A general note: Tetrazolium assays rely on reduction of a dye to a coloured formazan, in cell work by metabolically active cells.
Series [6] concerns BV-2. Put plainly: Inhibition of LPS-induced ROS production in mouse BV-2 cells at 10 uM preincubated for 30 mins followed by LPS-stimulation and measured after 30 mins by DCFH-DA based fluorescence microplate reader analysis relative to control. Format: functional. The settings on record: BV-2, 1 h, time 60 min.
Series [7] deals with PC-12. Put plainly: Cytotoxicity against rat PC-12 cells assessed as reduction in cell viability at 10 uM incubated for 2 hrs by MTT assay. Format: toxicity, cell-based. The settings on record: pc-12, 2 h.
For series [8], the system named is PC-12. Put plainly: Neuroprotective activity against H2O2-induced cell damage in rat PC-12 cells assessed as increase in cell viability at 10 uM preincubated for 2 hrs followed by H2O2 addition and measured after 24 hrs by MTT assay (reference value: 50.3%). Format: functional. The settings on record: time 26 hrs.
The next series is filed under the species Mus musculus. The settings on record: C57BL/6C, dose 50.0 mg/kg, route ig, time 3.0 weeks.

In series [1], `COc1cccc(COc2ccc(CNc3ccccc3)c(O)c2)c1` displayed an IC50 of 343 nM. In series [2], this molecule had an inhibition at 10 µM of less than 5%.
The molecule `Cc1ccc(COc2ccc(CNc3ccccc3)c(O)c2)cc1` came in with an IC50 in series [1] of 366 nM. The same molecule yielded an inhibition at 10 µM in [2] of 26.4%.
In the same order, the values of `CC(C)(C)c1ccc(COc2ccc(CNc3ccccc3)c(O)c2)cc1` are 435 nM and less than 5%.
`Oc1cccc(NCc2ccc(OCc3ccc(F)cc3)cc2O)c1` returned an IC50 in [1] of 67 nM. Testing at 10 µM in series [2] gave an inhibition of 35.5%.
In the same order, the values of `Oc1cc(OCc2cccc(Cl)c2)ccc1CNc1ccccc1` are 249 nM and 20.5%.
As for `Oc1cc(OCc2ccc(F)c(F)c2)ccc1CNc1ccccc1`, the IC50 in [1] was determined as 21 nM. For the same molecule, in series [2], the inhibition at 10 µM turned out to be 48%.
Consider `Oc1ccc(/C=C/c2cc(O)cc(O)c2)cc1` [RESVERATROL], for which the values for the inhibition at 10 µM in the series on BV-2 [3], in the series with BV-2 [4] and with BV-2 [6] were 51.8%, 52.2% and 56.7%, respectively. For the same molecule, the results for the Activity entry in the series on BV-2 [5], with PC-12 [7] and in the series on PC-12 [8] were “Non-Toxic”, “Non-Toxic” and 63.6%, respectively.
As to `C[C@H](NCc1ccc(OCc2cccc(F)c2)cc1)C(N)=O` [SAFINAMIDE], in the series filed under Mus musculus, the inhibition result is “Active”. Besides, the inhibition at 10 µM in [2] turned out to be 25.7%.
Regarding `Oc1cc(OCc2cccc(F)c2)ccc1CNc1ccccc1`, in [1], the IC50 is 95 nM. Moreover, the inhibition at 10 µM in series [2] was found to be 11.8%.
The corresponding values for `Oc1cc(OCc2ccc(F)c(Cl)c2)ccc1CNc1ccccc1` are 33 nM and 49.2%.
As for `Oc1cc(OCc2ccc(Cl)c(Cl)c2)ccc1CNc1ccccc1`, 49 nM corresponded to half-maximal inhibition in series [1] (IC50). Further, the inhibition at 10 µM in series [2] is 52.5%.
For `Oc1cc(OCc2ccccc2Cl)ccc1CNc1ccccc1`, the IC50 in series [1] stood at 423 nM. The molecule also registered an inhibition at 10 µM in [2] of 10.3%.
The corresponding values for `Oc1cc(OCc2ccccc2F)ccc1CNc1ccccc1` are 334 nM and 8.34%.
For the molecule `O=[N+]([O-])c1ccc(COc2ccc(CNc3ccccc3)c(O)c2)cc1`, in series [1], half-maximal inhibition (IC50) was put at 85 nM. In addition, 10 µM produced 30.6% inhibition in series [2].
In series [1], `Oc1cc(OCc2cccc(C(F)(F)F)c2)ccc1CNc1ccccc1` registered an IC50 of 297 nM. The molecule also registered an inhibition at 10 µM in [2] of 9.25%.
Take `Oc1cc(OCc2ccc(F)cc2)ccc1CNc1ccccc1F`: it took 35 nM to reach half-maximal inhibition in series [1] (IC50). In [2], the inhibition at 10 µM amounted to 38.3%.
The molecule `Oc1cc(OCc2ccc(Cl)cc2)ccc1CNc1ccccc1` yielded an IC50 in series [1] of 58 nM. In series [2], this molecule displayed an inhibition at 10 µM of 51.2%.
On to `Oc1cc(OCc2ccccc2)ccc1CNc1ccccc1`, for which it took 481 nM to reach half-maximal inhibition in series [1] (IC50). Moreover, the inhibition at 10 µM in [2] worked out at 14.7%.
